Assay: refractive index (Na D-line) (dimensionless); xn = mol fraction of the nth substance listed
Conditions: 100 kPa, Liquid, Standard Abbe refractometry

O=C1OCCO1 [ethylene carbonate] + CCn1cc[n+](C)c1.[Br-]
refractive index
Conditions | x1 = 0.106 | x1 = 0.222 | x1 = 0.2945 | x1 = 0.3671 | x1 = 0.4655 | x1 = 0.6002 | x1 = 0.7142 | x1 = 0.7981 | x1 = 0.8946
298.2 K | 1.5505 | 1.5405 | 1.531 | 1.5245 | 1.5105 | 1.498 | 1.4835 | 1.4695 | 1.45
308.2 K | 1.548 | 1.5385 | 1.529 | 1.5235 | 1.5085 | 1.4955 | 1.481 | 1.466 | 1.445
318.2 K | 1.5455 | 1.5345 | 1.5275 | 1.52 | 1.5065 | 1.493 | 1.4775 | 1.4635 | 1.4425

O=C1OCCO1 [ethylene carbonate] + O
Conditions | refractive index
298.2 K, x2 = 0.0993 | 1.4205
298.2 K, x2 = 0.1962 | 1.4175
298.2 K, x2 = 0.2943 | 1.414
298.2 K, x2 = 0.3321 | 1.4125
298.2 K, x2 = 0.4172 | 1.4085
298.2 K, x2 = 0.4758 | 1.4055
298.2 K, x2 = 0.5337 | 1.401
298.2 K, x2 = 0.5766 | 1.399
298.2 K, x2 = 0.6159 | 1.397
298.2 K, x2 = 0.6887 | 1.391
298.2 K, x2 = 0.7258 | 1.386
298.2 K, x2 = 0.7789 | 1.3805
298.2 K, x2 = 0.8239 | 1.375
298.2 K, x2 = 0.881 | 1.364
298.2 K, x2 = 0.9186 | 1.356
298.2 K, x2 = 0.9593 | 1.345
298.2 K, x2 = 0.9778 | 1.34
308.2 K, x2 = 0.0993 | 1.417
308.2 K, x2 = 0.1962 | 1.4145
308.2 K, x2 = 0.2943 | 1.411
308.2 K, x2 = 0.3321 | 1.409
308.2 K, x2 = 0.4172 | 1.4055
308.2 K, x2 = 0.4739 | 1.4015
308.2 K, x2 = 0.5337 | 1.3985
308.2 K, x2 = 0.5753 | 1.3955
308.2 K, x2 = 0.6159 | 1.3925
308.2 K, x2 = 0.688 | 1.3875
308.2 K, x2 = 0.725 | 1.381
308.2 K, x2 = 0.7785 | 1.3765
308.2 K, x2 = 0.8234 | 1.3705
308.2 K, x2 = 0.8807 | 1.361
308.2 K, x2 = 0.9183 | 1.354
308.2 K, x2 = 0.9591 | 1.3435
308.2 K, x2 = 0.9777 | 1.3385
318.2 K, x2 = 0.0993 | 1.414
318.2 K, x2 = 0.1962 | 1.4105
318.2 K, x2 = 0.2943 | 1.4075
318.2 K, x2 = 0.3321 | 1.406
318.2 K, x2 = 0.4172 | 1.4015
318.2 K, x2 = 0.473 | 1.3985
318.2 K, x2 = 0.5315 | 1.395
318.2 K, x2 = 0.5744 | 1.3925
318.2 K, x2 = 0.6147 | 1.3895
318.2 K, x2 = 0.6871 | 1.384
318.2 K, x2 = 0.7243 | 1.3785
318.2 K, x2 = 0.7779 | 1.374
318.2 K, x2 = 0.8228 | 1.368
318.2 K, x2 = 0.8803 | 1.3585
318.2 K, x2 = 0.9181 | 1.3505
318.2 K, x2 = 0.959 | 1.3425
318.2 K, x2 = 0.9777 | 1.337
